The text below walks through data of ChEMBL document CHEMBL5291721, “A preclinical secondary pharmacology resource illuminates target-adverse drug reaction associations of marketed drugs” (Nat Commun, 2023).

The target in one experiment is Mu-type opioid receptor (Homo sapiens, UniProt P35372). The experiment is described as follows: biochemical. The experiment is classed as functional.
Experiment [1] has as its target T1, Alpha-2C adrenergic receptor (Homo sapiens, UniProt P18825).
T1 sequence (P18825 whole entry): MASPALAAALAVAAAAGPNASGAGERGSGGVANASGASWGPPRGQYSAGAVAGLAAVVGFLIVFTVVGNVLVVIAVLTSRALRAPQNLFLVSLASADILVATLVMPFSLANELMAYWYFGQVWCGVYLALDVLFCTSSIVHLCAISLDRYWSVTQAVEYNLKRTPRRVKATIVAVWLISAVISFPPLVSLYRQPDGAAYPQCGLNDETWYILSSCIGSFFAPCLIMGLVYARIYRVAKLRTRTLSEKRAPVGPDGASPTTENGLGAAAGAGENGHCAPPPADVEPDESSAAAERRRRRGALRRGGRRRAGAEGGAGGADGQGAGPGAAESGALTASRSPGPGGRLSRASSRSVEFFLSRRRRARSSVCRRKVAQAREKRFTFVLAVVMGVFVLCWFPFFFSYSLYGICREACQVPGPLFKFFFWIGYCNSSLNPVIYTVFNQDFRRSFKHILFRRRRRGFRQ
The experiment is classed as functional.

The target of experiment [2] is T2, Alpha-1A adrenergic receptor (Homo sapiens, UniProt P35348).
T2 sequence (P35348 whole entry): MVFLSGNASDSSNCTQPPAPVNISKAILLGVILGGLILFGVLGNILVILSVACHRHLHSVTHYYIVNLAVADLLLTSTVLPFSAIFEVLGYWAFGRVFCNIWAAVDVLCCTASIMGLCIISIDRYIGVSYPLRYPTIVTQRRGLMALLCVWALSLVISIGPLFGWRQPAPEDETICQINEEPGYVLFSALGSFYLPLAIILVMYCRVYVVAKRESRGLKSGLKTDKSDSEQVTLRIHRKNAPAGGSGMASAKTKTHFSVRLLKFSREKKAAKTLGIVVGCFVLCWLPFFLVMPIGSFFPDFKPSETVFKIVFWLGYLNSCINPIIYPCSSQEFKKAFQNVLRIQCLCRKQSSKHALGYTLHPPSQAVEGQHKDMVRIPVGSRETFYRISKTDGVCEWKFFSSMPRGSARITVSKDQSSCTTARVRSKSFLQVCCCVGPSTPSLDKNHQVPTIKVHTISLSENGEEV

For the next experiment, the target named is Histamine H3 receptor (Homo sapiens, UniProt Q9Y5N1).
Sequence of Histamine H3 receptor (Q9Y5N1 whole entry): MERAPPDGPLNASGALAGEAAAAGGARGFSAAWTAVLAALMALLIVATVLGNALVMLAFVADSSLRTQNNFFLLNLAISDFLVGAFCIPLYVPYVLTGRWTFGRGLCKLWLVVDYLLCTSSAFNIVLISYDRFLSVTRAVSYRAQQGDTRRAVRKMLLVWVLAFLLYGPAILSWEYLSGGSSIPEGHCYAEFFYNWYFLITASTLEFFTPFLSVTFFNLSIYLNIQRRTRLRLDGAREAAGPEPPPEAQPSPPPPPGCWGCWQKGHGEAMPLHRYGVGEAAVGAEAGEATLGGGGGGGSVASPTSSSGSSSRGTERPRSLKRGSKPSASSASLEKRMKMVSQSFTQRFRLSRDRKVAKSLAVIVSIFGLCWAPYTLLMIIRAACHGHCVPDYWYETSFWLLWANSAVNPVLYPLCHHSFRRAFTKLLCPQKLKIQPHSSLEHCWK
The target in experiment [3] is Kappa-type opioid receptor (Homo sapiens, UniProt P41145).
Sequence of Kappa-type opioid receptor (P41145 whole entry): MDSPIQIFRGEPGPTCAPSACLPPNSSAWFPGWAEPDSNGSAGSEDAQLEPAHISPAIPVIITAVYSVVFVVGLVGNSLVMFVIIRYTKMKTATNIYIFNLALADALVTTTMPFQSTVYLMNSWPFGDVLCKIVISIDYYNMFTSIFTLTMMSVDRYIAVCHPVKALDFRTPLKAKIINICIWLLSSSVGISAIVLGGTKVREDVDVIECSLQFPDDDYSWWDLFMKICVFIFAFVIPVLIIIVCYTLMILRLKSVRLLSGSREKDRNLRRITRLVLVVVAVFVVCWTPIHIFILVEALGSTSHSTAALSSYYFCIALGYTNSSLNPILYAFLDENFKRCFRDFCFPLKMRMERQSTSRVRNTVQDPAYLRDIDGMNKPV
Experiment [4] deals with T3, 5-hydroxytryptamine receptor 3A (Homo sapiens, UniProt P46098).
T3 sequence (P46098 whole entry): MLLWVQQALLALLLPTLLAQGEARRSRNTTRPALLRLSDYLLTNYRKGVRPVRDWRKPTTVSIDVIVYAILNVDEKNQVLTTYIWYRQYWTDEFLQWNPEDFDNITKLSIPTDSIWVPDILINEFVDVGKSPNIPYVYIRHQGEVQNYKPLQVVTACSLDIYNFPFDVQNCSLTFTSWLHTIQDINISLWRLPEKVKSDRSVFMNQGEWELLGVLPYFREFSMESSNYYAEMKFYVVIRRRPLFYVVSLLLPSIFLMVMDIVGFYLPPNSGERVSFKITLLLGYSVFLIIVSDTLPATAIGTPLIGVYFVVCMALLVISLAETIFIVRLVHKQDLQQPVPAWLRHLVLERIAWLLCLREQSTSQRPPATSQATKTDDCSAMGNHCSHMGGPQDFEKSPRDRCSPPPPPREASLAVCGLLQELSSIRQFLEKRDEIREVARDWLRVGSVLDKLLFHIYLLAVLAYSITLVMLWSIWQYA
The experiment is classed as functional.

Experiment [5] has as its target T4, Type-1 angiotensin II receptor (Homo sapiens, UniProt P30556).
T4 sequence (P30556 whole entry): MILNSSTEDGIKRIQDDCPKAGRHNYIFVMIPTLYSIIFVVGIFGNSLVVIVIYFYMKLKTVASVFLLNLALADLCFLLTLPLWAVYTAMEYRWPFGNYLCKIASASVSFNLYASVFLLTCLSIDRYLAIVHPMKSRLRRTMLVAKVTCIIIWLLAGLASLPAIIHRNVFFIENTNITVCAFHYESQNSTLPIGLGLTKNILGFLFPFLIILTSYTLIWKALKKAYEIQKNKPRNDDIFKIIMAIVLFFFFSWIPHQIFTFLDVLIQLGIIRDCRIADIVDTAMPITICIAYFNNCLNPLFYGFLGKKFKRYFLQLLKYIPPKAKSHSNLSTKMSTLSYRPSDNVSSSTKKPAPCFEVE

Experiment [6] addresses T5, Cholecystokinin receptor type A (Homo sapiens, UniProt P32238).
T5 sequence (P32238 whole entry): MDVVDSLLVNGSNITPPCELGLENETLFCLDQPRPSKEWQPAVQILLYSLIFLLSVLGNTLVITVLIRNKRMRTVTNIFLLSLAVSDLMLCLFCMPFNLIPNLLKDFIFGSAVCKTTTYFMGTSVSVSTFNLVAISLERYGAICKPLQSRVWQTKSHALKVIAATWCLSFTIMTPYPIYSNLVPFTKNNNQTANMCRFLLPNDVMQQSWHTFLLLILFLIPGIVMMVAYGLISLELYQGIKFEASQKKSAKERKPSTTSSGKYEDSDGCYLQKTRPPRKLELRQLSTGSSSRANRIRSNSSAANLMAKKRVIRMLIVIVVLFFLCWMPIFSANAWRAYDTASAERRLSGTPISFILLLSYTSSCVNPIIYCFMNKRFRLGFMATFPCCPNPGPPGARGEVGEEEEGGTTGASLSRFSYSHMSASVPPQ

The target in a further experiment is Histamine H2 receptor (Homo sapiens, UniProt P25021). The experiment is classed as functional, cell-based.
Sequence of Histamine H2 receptor (P25021 whole entry): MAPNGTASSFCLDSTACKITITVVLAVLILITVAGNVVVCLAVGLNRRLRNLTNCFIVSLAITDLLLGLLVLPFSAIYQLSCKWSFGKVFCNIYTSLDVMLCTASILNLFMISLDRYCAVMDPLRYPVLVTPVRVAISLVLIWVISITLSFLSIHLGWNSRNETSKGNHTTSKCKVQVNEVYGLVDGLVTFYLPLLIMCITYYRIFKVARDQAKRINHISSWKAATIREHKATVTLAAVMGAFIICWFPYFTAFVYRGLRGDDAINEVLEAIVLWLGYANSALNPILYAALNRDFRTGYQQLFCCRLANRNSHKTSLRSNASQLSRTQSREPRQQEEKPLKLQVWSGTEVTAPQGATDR
Experiment [7] addresses T6, 5-hydroxytryptamine receptor 1A (Homo sapiens, UniProt P08908).
T6 sequence (P08908 whole entry): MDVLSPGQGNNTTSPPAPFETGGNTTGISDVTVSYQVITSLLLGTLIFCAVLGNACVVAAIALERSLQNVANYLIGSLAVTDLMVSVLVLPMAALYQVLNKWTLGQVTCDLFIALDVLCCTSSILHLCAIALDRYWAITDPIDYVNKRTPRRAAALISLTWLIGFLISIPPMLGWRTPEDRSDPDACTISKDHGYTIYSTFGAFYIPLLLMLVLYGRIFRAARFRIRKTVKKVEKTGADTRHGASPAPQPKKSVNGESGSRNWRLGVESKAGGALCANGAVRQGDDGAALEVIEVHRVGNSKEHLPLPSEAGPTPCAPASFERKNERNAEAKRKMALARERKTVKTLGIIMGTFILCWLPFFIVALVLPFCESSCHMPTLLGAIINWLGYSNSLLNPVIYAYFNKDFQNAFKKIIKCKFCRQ
The experiment is classed as functional, cell-based.

The target of experiment [8] is Vascular endothelial growth factor receptor 2 (Homo sapiens, UniProt P35968). The experiment is classed as functional.
Sequence of Vascular endothelial growth factor receptor 2 (P35968 whole entry): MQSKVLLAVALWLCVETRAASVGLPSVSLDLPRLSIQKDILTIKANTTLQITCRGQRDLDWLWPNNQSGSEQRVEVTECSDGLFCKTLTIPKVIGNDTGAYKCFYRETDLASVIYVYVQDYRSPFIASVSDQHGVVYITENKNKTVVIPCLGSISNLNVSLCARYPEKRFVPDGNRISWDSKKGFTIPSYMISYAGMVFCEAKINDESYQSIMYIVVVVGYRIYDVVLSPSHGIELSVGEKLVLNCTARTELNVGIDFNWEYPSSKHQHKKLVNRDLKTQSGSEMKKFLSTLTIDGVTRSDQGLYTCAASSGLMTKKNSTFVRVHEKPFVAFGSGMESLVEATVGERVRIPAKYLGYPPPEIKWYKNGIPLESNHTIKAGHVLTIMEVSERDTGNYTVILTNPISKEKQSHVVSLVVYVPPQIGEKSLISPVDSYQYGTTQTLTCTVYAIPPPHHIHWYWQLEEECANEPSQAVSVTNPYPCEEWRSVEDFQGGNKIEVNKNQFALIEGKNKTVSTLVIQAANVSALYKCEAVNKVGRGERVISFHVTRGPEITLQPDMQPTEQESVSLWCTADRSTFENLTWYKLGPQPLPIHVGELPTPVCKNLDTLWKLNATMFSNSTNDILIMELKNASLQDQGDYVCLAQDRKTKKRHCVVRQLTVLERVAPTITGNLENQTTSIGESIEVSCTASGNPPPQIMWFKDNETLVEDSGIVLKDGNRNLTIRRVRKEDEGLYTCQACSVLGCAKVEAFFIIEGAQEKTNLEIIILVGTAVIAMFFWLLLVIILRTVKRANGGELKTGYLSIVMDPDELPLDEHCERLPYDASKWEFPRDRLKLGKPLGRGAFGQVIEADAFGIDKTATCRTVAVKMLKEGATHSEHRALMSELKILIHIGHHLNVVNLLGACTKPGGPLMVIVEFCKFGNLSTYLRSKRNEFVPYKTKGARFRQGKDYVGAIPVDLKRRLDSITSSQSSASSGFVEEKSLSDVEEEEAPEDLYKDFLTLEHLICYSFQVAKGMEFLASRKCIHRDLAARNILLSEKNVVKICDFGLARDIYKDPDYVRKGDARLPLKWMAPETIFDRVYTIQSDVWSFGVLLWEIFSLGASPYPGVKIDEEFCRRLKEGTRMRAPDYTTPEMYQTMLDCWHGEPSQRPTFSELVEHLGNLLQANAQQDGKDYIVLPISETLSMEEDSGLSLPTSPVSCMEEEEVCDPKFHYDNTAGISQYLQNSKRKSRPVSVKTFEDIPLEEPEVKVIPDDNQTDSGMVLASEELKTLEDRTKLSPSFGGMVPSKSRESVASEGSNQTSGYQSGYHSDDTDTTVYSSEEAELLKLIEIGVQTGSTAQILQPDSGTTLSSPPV
Further: assay procedure not described here.

Sequence of Mu-type opioid receptor (P35372 whole entry): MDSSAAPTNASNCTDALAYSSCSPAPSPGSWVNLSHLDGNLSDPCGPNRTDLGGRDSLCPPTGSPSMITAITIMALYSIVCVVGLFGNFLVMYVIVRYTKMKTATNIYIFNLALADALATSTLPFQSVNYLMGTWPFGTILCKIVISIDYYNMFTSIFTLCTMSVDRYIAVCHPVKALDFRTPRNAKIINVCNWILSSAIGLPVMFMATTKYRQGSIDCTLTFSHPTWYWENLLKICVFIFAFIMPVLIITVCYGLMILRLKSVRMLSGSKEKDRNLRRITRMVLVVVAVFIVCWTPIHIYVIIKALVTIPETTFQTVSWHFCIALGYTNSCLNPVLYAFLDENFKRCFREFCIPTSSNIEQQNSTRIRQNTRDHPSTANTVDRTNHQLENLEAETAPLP

With `Cc1ccccc1-n1c(CF)nc2ccc(N)cc2c1=O` [AFLOQUALONE], the half-maximal activity concentration (AC50) on Mu-type opioid receptor was greater than 30 µM; in [1], greater than 10 µM; in experiment [2], greater than 30 µM; at Histamine H3 receptor it was greater than 30 µM; in [3] it was greater than 10 µM; in experiment [4], greater than 30 µM. Besides, the half-maximal activity concentration (AC50) in experiment [5] is greater than 30 µM; in experiment [6] it was greater than 30 µM; on Histamine H2 receptor it was greater than 30 µM; in experiment [7] it was greater than 10 µM.
On to `O=C(O)COCCN1CCN(C(c2ccccc2)c2ccc(Cl)cc2)CC1` (centres undefined) [CETIRIZINE], for which the AC50 was greater than 10 µM in experiment [1]; greater than 30 µM in experiment [8]; greater than 10 µM in experiment [2]; greater than 10 µM at Histamine H3 receptor; greater than 10 µM in experiment [3]; greater than 30 µM in experiment [4]. The AC50 is greater than 30 µM in [5], greater than 30 µM in experiment [6] and greater than 10 µM in [7].
Regarding `CNCCc1ccc(OC(=O)C(C)C)c(OC(=O)C(C)C)c1` [IBOPAMINE], the AC50 is greater than 30 µM at Mu-type opioid receptor; 8.4 µM in experiment [1]; greater than 30 µM in experiment [2]; greater than 30 µM at Histamine H3 receptor; greater than 30 µM in experiment [3]; greater than 30 µM in [4]. For the same compound, the AC50 (in experiment [5]; in experiment [6]; at Histamine H2 receptor; in experiment [7]) was greater than 30 µM in each case.
Consider `CN(C)CCCN1c2ccccc2CCc2ccccc21` [IMIPRAMINE], for which the AC50 on Mu-type opioid receptor is 28 µM; in experiment [1], 2.1 µM; in experiment [2], 0.0804 µM; at Histamine H3 receptor, greater than 10 µM; in experiment [4] it was greater than 10 µM; in experiment [5], greater than 30 µM. For the same compound, the AC50 in [6] is greater than 30 µM; on Histamine H2 receptor, greater than 10 µM; in [7], greater than 10 µM.
Regarding `CCC[C@@H]1C[C@@H](C(=O)N[C@@H]([C@H]2O[C@H](SC)[C@H](O)[C@@H](O)[C@H]2O)[C@@H](C)O)N(C)C1` [LINCOMYCIN], the AC50 is greater than 30 µM on Mu-type opioid receptor; greater than 10 µM in experiment [1]; greater than 10 µM in experiment [2]; greater than 10 µM in [3]; greater than 30 µM in experiment [4]; greater than 10 µM in experiment [5]. For the same compound, the AC50 is greater than 10 µM in experiment [6], greater than 10 µM on Histamine H2 receptor and greater than 30 µM in experiment [7].
In the case of `Cc1ccccc1N1C(=O)c2cc(S(N)(=O)=O)c(Cl)cc2NC1C` (centres undefined) [METOLAZONE], the half-maximal activity concentration (AC50) is greater than 30 µM on Mu-type opioid receptor; greater than 10 µM in experiment [1]; greater than 10 µM in experiment [2]; greater than 10 µM in experiment [3]; greater than 30 µM in experiment [4]; greater than 10 µM in [5]. In addition, the half-maximal activity concentration (AC50) (in [6]; on Histamine H2 receptor; in [7]) was greater than 10 µM throughout.
Regarding `O=C(O)c1cccnc1Nc1cccc(C(F)(F)F)c1` [NIFLUMIC ACID], the AC50 on Mu-type opioid receptor is greater than 30 µM; in experiment [1], greater than 10 µM; in experiment [2] it was greater than 10 µM; in experiment [3] it was greater than 10 µM; in experiment [4], greater than 30 µM; in [5], greater than 10 µM. In addition, the half-maximal activity concentration (AC50) (in experiment [6]; at Histamine H2 receptor; in experiment [7]) was greater than 10 µM throughout.
Consider `CN[C@@H](C)[C@@H](O)c1ccccc1` [PSEUDOEPHEDRINE], for which the concentration at half-maximal activity (AC50) is greater than 30 µM on Mu-type opioid receptor; 13 µM in [1]; greater than 10 µM in experiment [2]; greater than 10 µM at Histamine H3 receptor; greater than 10 µM in experiment [3]; greater than 30 µM in experiment [4]. The AC50 is greater than 30 µM in experiment [5], greater than 30 µM in [6], greater than 10 µM on Histamine H2 receptor and greater than 10 µM in experiment [7].
As for `CCCN1CC(NS(=O)(=O)N(CC)CC)CC2Cc3c(O)cccc3CC21` (centres undefined) [QUINAGOLIDE], the half-maximal activity concentration (AC50) is greater than 30 µM on Mu-type opioid receptor; 11 µM in experiment [1]; 29 µM in experiment [2]; greater than 30 µM on Histamine H3 receptor; 1.7 µM in [3]; greater than 30 µM in experiment [4]. In addition, the half-maximal activity concentration (AC50) in [5] is greater than 30 µM; in experiment [6], greater than 30 µM; on Histamine H2 receptor it was greater than 30 µM; in experiment [7], 1.1 µM.
Consider `C[C@]12CCC(=O)C[C@@H]1CC[C@@H]1[C@@H]2CC[C@]2(C)[C@@H](O)CC[C@@H]12` [STANOLONE], for which the AC50 (at Mu-type opioid receptor; in experiment [1]; in experiment [2]; at Histamine H3 receptor; in experiment [3]; in experiment [4]) was greater than 30 µM in each case. Further, the AC50 (in experiment [5]; in experiment [6]; at Histamine H2 receptor; in experiment [7]) was greater than 30 µM each time.
Regarding `C[C@]12C=CC(=O)C=C1CC[C@@H]1[C@@H]2CC[C@]2(C)OC(=O)CC[C@@H]12` [TESTOLACTONE], the AC50 was greater than 30 µM on Mu-type opioid receptor; greater than 10 µM in [1]; greater than 10 µM in [2]; greater than 10 µM in experiment [3]; greater than 30 µM in experiment [4]; greater than 10 µM in experiment [5]. Also, the AC50 was greater than 10 µM in experiment [6], greater than 10 µM at Histamine H2 receptor and greater than 30 µM in experiment [7].
